The structures appear in SMILES notation. Numbers after ± are expanded uncertainties.

The data set is described as follows: Boiling temperature at pressure P. The settings on record: 101.33 kPa; Liquid; Ebulliometric method (Recirculating still).
On to `COc1ccccc1O` [2-methoxyphenol], for which the “Boiling temperature at pressure P” value worked out at 205.10 ± 0.05 °C.

Turning to `COc1ccccc1` [anisole], the “Boiling temperature at pressure P” value amounted to 153.54 ± 0.05 °C.

With `CCCCOC(C)=O` [butyl ethanoate], the “Boiling temperature at pressure P” value was 125.92 ± 0.05 °C.

Source of the values: the NIST ThermoML archive (doi:10.1016/j.jct.2015.04.003).
